Key:
[1] = vapor pressure at 25° C.; cited from earlier work
[2] = water / 1-octanol; cited from earlier work
[3] = Evaporation cell test: weight loss of volatile compound through coated or uncoated paper; assay type: physicochemical; conditions: 23° C., 50% humidity; for Weight loss of volatile compound through uncoated paper V2: uncoated paper V2, no coating
Method: The test was carried out according to the method described by Diehl, H. Pfeiffer, A.-M, Seyffer H., (2014), New testing method for functional barriers, International Paperworld IPW 8-11. All tests were carried out in a climate chamber at 23° C. and 50% humidity.
For this, circular specimens were cut from the paper coated with the respective coating. The specimen was placed in the holder of the evaporation cell. A defined amount of the respective volatile compound was filled into the chamber of the evaporation cell, and the chamber was closed by the holder and immediately weighed thereafter to an accuracy of 0.1 mg. The closed evaporation cell was reweighed after 1 h, 4 h, 1 d and 2 d.

[4] = paper 1, Polymer dispersion 1, thickness 10 g/m^2, coverage 50%
[5] = paper 1, Polymer dispersion 2, thickness 10 g/m^2, coverage 50%
[6] = paper 2, Polymer dispersion 1, thickness 15 g/m^2, coverage 30%
[7] = paper 2, Polymer dispersion 2, thickness 5 g/m^2, coverage 70%
[8] = paper V1, Polymer dispersion 1, thickness 10 g/m^2, coverage 100%
[9] = paper V1, Polymer dispersion 2, thickness 10 g/m^2, coverage 100%

Compound | VP(25° C.) [1] | Log Pow [2] | Weight loss of volatile compound through respective coating of paper 1 [3, 4] | Weight loss of volatile compound through respective coating of paper 1 [3, 5] | Weight loss of volatile compound through respective coating of paper 2 [3, 6] | Weight loss of volatile compound through respective coating of paper 2 [3, 7] | Weight loss of volatile compound through respective coating of paper V1 [3, 8] | Weight loss of volatile compound through respective coating of paper V1 [3, 9] | Weight loss of volatile compound through uncoated paper V2 [3]
CC(=O)OCC(C)C [Isobutyl acetate] | 20 mbar | 1.8 | 300 g/(m^2d) | 320 g/(m^2d) | 749 g/(m^2d) | 163 g/(m^2d) | 150 g/(m^2d) | 160 g/(m^2d) | 3500 g/(m^2d)
CCOC(C)=O [Ethyl acetate] | 7 mbar | 0.9 | 1320 g/(m^2d) | 1300 g/(m^2d) | 3300 g/(m^2d) | 653 g/(m^2d) | 660 g/(m^2d) | 650 g/(m^2d) | 2450 g/(m^2d)
CC(C)=CCCC(C)CC=O (stereo not drawn) [Citronellal] | 0.5 mbar | 3.8 | 2 g/(m^2d) | 2 g/(m^2d) | 5 g/(m^2d) | 4 g/(m^2d) | 1 g/(m^2d) | 1 g/(m^2d) | 950 g/(m^2d)
CCCCCC=O [Hexanal] | 15 mbar | 1.9 | 291 g/(m^2d) | 702 g/(m^2d) | 725 g/(m^2d) | 353 g/(m^2d) | 145 g/(m^2d) | 350 g/(m^2d) | 3750 g/(m^2d)
CC(=O)OCCC(C)C [Isoamyl acetate] | 5 mbar | 2.5 | 120 g/(m^2d) | 204 g/(m^2d) | 295 g/(m^2d) | 103 g/(m^2d) | 60 g/(m^2d) | 100 g/(m^2d) | 2100 g/(m^2d)
CCCCCCC [n-Heptane] | 61 mbar | 4.8 | 2 g/(m^2d) | 1200 g/(m^2d) | 5 g/(m^2d) | 603 g/(m^2d) | 1 g/(m^2d) | 600 g/(m^2d) | 4500 g/(m^2d)
C=C(C)[C@H]1CC=C(C)CC1 [Limonene] | 2 mbar | 4.6 | 2 g/(m^2d) | 100 g/(m^2d) | 5 g/(m^2d) | 53 g/(m^2d) | 1 g/(m^2d) | 50 g/(m^2d) | 1750 g/(m^2d)
CCCCCC [n-Hexane] | 201 mbar | 3.9 | 4 g/(m^2d) | 1900 g/(m^2d) | 10 g/(m^2d) | 953 g/(m^2d) | 2 g/(m^2d) | 950 g/(m^2d) | > 4000 g/(m^2d)

— patent publication US20230044427A1, “EVAPORATION RETARDANT MEMBRANE FOR ODORANT COMPOSITIONS” (BASF SE, priority 2020, published 2023)
